Reference: patent publication US20220324865A1 (Bayer Aktiengesellschaft, priority 2018, published 2022)
Where a name gives a salt, the structure may show the parent alone.

The compounds below were run against T1, human EP3 receptor (Homo sapiens, UniProt P43115) (assay: Cellular in vitro assay for determining EP3 receptor activity (human EP3 cell line, sulprostone-stimulated calcium luminescence)). Details: CHO cells expressing human EP3 and mitochondrial Clytin; antagonist mode, sulprostone at EC50; read-out: EP3 CHO mtCLY ANTAG IC50.
T1 construct: expressed in transfected cells; host or cells: CHO K1 (Chinese Hamster Ovary), stably co-transfected with Galpha16 and mitochondrial clytin
T1 sequence (P43115 1-390): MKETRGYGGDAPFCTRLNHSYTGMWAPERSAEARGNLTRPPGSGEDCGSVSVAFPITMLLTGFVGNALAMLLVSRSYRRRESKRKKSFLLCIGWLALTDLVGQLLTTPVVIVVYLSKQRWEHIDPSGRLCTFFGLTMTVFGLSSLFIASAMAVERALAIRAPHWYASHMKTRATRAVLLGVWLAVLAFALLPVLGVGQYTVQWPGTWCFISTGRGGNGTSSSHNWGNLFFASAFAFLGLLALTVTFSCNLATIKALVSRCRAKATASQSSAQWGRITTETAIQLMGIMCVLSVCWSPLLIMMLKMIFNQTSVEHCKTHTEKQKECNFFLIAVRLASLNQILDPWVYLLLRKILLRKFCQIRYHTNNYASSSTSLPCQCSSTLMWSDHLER
Assay type: cell-based
Procedure, shortened: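 Antagonist activity was measured as inhibition of the luminescent calcium signal elicited by EC50 sulprostone, following 10 min compound pretreatment. The cell line was recombinant CHO K1 co-expressing human EP3, Gα16 and the photoprotein Clytin, reconstituted with coelenterazine.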

Row | Compound | IC50 [nM]
1 | CC(NC(=O)c1cc2c(=O)[nH]c(-c3ccc4ccccc4c3)cn2n1)c1ccn(C)n1 (stereo not shown) [Example 2-49, N-[1-(1-Methyl-1H-pyrazol-3-yl)ethyl]-6-(2-naphthyl)-4-oxo-4,5-dihydropyrazolo[1,5-a]pyrazine-2-carboxamide] | 8.6
2 | Cc1cc(-c2cn3nc(C(=O)N[C@@H](c4ccc(F)cc4)C(C)(C)O)c(C4CCC4)c3c(=O)[nH]2)ccc1Cl [6-620] | 1.5
3 | COc1cc(-c2cn3nc(C(=O)N[C@@H](C)C4CC4)c(C4CC4)c3c(=O)[nH]2)ccc1Cl [6-481] | 0.57
4 | Cc1ccc(-c2cn3nc(C(=O)N[C@@H](c4ccc(F)cc4)C(C)(C)O)cc3c(=O)[nH]2)c(F)c1C [6-646] | 5.4
5 | Cc1c(C(=O)NC2(c3ccc(Cl)cc3)CCC2)nn2c(C)c(-c3ccc4ccccc4c3)[nH]c(=O)c12 [Example 3-32, N-[1-(4-Chlorophenyl)cyclobutyl]-3,7-dimethyl-6-(naphthalen-2-yl)-4-oxo-4,5-dihydropyrazolo[1,5-a]pyrazine-2-carboxamide] | 5.8
6 | COc1ccc(C2(NC(=O)c3nn4cc(-c5ccc(Cl)c(C)c5)[nH]c(=O)c4c3C(F)(F)F)CN(C)C2)cc1 [6-213] | 3.15
7 | Cc1ccc(-c2cn3nc(C(=O)N[C@@H](c4ccc(F)cc4)C(C)(C)O)c(C)c3c(=O)[nH]2)c(F)c1F [Example 1-163, 6-(2,3-Difluoro-4-methylphenyl)-N-[(1S)-1-(4-fluorophenyl)-2-hydroxy-2-methylpropyl]-3-methyl-4-oxo-4,5-dihydropyrazolo[1,5-a]pyrazine-2-carboxamide] | 7.8
8 | Cc1cc(-c2cn3nc(C(=O)N[C@H](C)C(C)C)c(C4CC4)c3c(=O)[nH]2)ccc1C(F)(F)F [Example 1-139, 3-Cyclopropyl-N-[(2R)-3-methylbutan-2-yl]-6-[3-methyl-4-(trifluoromethyl)phenyl]-4-oxo-4,5-dihydropyrazolo[1,5-a]pyrazine-2-carboxamide] | 7.55
9 | Cc1cc(-c2cn3nc(C(=O)NC(c4ccc(F)cc4)C4(O)CC4)c(C4CC4)c3c(=O)[nH]2)ccc1F (single isomer, unassigned) [6-651] | 1
10 | COc1ccc(CCNC(=O)c2cc3c(=O)[nH]c(-c4ccc5c(c4)OCCO5)cn3n2)cc1OC [6-77] | 2.28
11 | O=C(NC(CO)c1ccc(F)cc1)c1cc2c(=O)[nH]c(-c3ccc4cccnc4c3)cn2n1 (stereo not shown) [6-30] | 2.15
12 | COCc1c(C(=O)N[C@@H](c2ccc(F)cc2)C(F)(F)CO)nn2cc(-c3ccc(Cl)c(C)c3)[nH]c(=O)c12 [6-621] | 1.15
13 | Cc1ccc(-c2cn3nc(C(=O)NCC(N)C(F)(F)F)c(C4CC4)c3c(=O)[nH]2)cc1F (single isomer, unassigned) [6-396] | 3.05
14 | CC(C)(O)[C@@H](NC(=O)c1nn2cc(-c3ccc(C(F)(F)F)c(F)c3F)[nH]c(=O)c2c1C1CC1)c1ccc(F)cc1 [6-602] | 5.65
15 | CCn1nccc1C(C)NC(=O)c1nn2cc(-c3cnc4cccc(C)c4c3)[nH]c(=O)c2c1C(C)C (stereo not shown) [Example 4-34, N-[1-(1-Ethyl-1H-pyrazol-5-yl)ethyl]-3-isopropyl-6-(5-methylquinolin-3-yl)-4-oxo-4,5-dihydropyrazolo[1,5-a]pyrazine-2-carboxamide] | 1.09
16 | COc1ccc(CNC(=O)c2cc3c(=O)[nH]c(-c4ccc5ccccc5c4)cn3n2)cc1OC [Example 1-103, N-(3,4-Dimethoxybenzyl)-6-(2-naphthyl)-4-oxo-4,5-dihydropyrazolo[1,5-a]pyrazin-2-carboxamide] | 1.87
17 | COC[C@H](NC(=O)c1cc2c(=O)[nH]c(-c3ccc4ccccc4c3)cn2n1)c1ccccc1 [Example 1-2, N-[(1R)-2-Methoxy-1-phenylethyl]-6-(naphthalen-2-yl)-4-oxo-4,5-dihydropyrazolo[1,5-a]pyrazine-2-carboxamide] | 2.5
18 | Cc1c(C(=O)NCc2cccc(CN(C)C)c2)nn2c(C)c(-c3ccc4ccccc4c3)[nH]c(=O)c12 [Example 3-42, N-({3-[(Dimethylamino)methyl]phenyl}methyl)-3,7-dimethyl-6-(naphthalen-2-yl)-4-oxo-4,5-dihydropyrazolo[1,5-a]pyrazine-2-carboxamide] | 4.9
19 | O=C(N[C@@H](c1ccc(F)cc1)C(F)(F)CO)c1nn2cc(-c3cc(F)c(Cl)c(F)c3)[nH]c(=O)c2c1C1CC1 [6-474] | 1.63
20 | Cc1ccc(-c2cn3nc(C(=O)NC(C)c4ccc(F)cc4)cc3c(=O)[nH]2)cc1C (stereo not shown) [Example 5-1, 6-(3,4-Dimethylphenyl)-N-[1-(4-fluorophenyl)ethyl]-4-oxo-5H-pyrazolo[1,5-a]pyrazine-2-carboxamide] | 6.78

The remaining compounds from weak to strong by IC50, led by results:

Row | IC50 [nM] | Compound
21 | 10.1 | Cc1cc(-c2cn3nc(C(=O)NCC(N)C(F)(F)F)c(C4CC4)c3c(=O)[nH]2)ccc1C(F)(F)F (single isomer, unassigned) [6-131]
22 | 8.75 | Cn1cc(CNC(=O)c2nn3cc(-c4ccc5ccccc5c4)[nH]c(=O)c3c2C#N)cn1 [Example 3-45, 3-Cyano-N-[(1-methyl-1H-pyrazol-4-yl)methyl]-6-(naphthalen-2-yl)-4-oxo-4,5-dihydropyrazolo[1,5-a]pyrazine-2-carboxamide]
23 | 8.55 | O=C(N[C@@H](c1ccc(F)cc1)C(F)(F)CO)c1nn2cc(-c3ccc(Cl)c(F)c3)[nH]c(=O)c2c1C(F)F [6-631]
24 | 7.65 | Cc1ccc(-c2[nH]c(=O)c3c(C4CC4)c(C(=O)N[C@@H](c4ccc(F)cc4)C(C)(C)O)nn3c2C#N)cc1C [6-617]
25 | 7.05 | CCN1CC(NC(=O)c2cc3c(=O)[nH]c(-c4ccc5ccccc5c4)cn3n2)(c2ccc(F)cc2)C1 [Example 1-145, N-[3-(4-Fluorophenyl)-1-ethylazetidin-3-yl]-6-(naphthalen-2-yl)-4-oxo-4,5-dihydropyrazolo[1,5-a]-pyrazine-2-carboxamide formic acid salt]
26 | 5.6 | CC(C)(O)[C@@H](NC(=O)c1nn2cc(-c3ccc(C(F)(F)F)c(F)c3)[nH]c(=O)c2c1C1CC1)c1ccc(F)cc1 [6-588]
27 | 4.05 | Cc1cc(-c2cn3nc(C(=O)N[C@@H](c4ccc(F)cc4)C(C)(C)O)c(C4CC4)c3c(=O)[nH]2)ccc1C(F)(F)F [Example 1-132, 3-Cyclopropyl-N-[(1S)-1-(4-fluorophenyl)-2-hydroxy-2-methylpropyl]-6-[3-methyl-4-(trifluoromethyl)phenyl]-4-oxo-4,5-dihydropyrazolo[1,5-a]pyrazine-2-carboxamide]
28 | 3.73 | Cc1ccc(-c2cn3nc(C(=O)N[C@@H](c4ccccc4)[C@@H](O)CO)cc3c(=O)[nH]2)cc1C [6-353]
29 | 3.65 | O=C(NCCc1ccccc1F)c1cc2c(=O)[nH]c(-c3ccc4ccccc4c3)cn2n1 [Example 2-9, N-[2-(2-Fluorophenyl)ethyl]-6-(2-naphthyl)-4-oxo-4,5-dihydropyrazolo[1,5-a]pyrazine-2-carboxamide]
30 | 2.25 | CCN(CCO)CC(NC(=O)c1cc2c(=O)[nH]c(-c3ccc4ccccc4c3)cn2n1)c1ccccc1 (stereo not shown) [Example 1-27, N-[2-[Ethyl(2-hydroxyethyl)amino]-1-phenylethyl]-6-(2-naphthyl)-4-oxo-5H-pyrazolo[1,5-a]-pyrazine-2-carboxamide]
31 | 2.05 | Cc1c(C(=O)NCc2ccnn2C)nn2c(C)c(-c3ccc4ccccc4c3)[nH]c(=O)c12 [Example 3-11, 3,7-Dimethyl-N-[(1-methyl-1H-pyrazol-5-yl)methyl]-6-(naphthalen-2-yl)-4-oxo-4,5-dihydropyrazolo[1,5-a]pyrazine-2-carboxamide]
32 | 1.8 | Cc1cccc2ncc(-c3cn4nc(C(=O)NC(C)c5ccc(S(C)(=O)=O)cc5)c(C(C)C)c4c(=O)[nH]3)cc12 (stereo not shown) [Example 4-61, 3-Isopropyl-6-(5-methyl-3-quinolyl)-N-[1-(4-methylsulfonylphenyl)ethyl]-4-oxo-5H-pyrazolo[1,5-a]pyrazine-2-carboxamide]
33 | 1.7 | Cc1ccc(-c2cn3nc(C(=O)NCCN(CC(F)F)C4CC4)c(C4CC4)c3c(=O)[nH]2)cc1C [6-460]
34 | 1.6 | Cc1ccc(-c2cn3nc(C(=O)NC(c4ccc(F)cc4)C4(O)CC4)c(C4CC4)c3c(=O)[nH]2)cc1F (single isomer, unassigned) [6-383]
35 | 1.5 | Cc1ccc(-c2cn3nc(C(=O)NC4(c5ccc(F)cc5)CN(C)C4)c(C4CCC4)c3c(=O)[nH]2)cc1F [6-574]
36 | 1.35 | Cc1cc(-c2cn3nc(C(=O)NCC(C)(N)C(F)(F)F)c(C4CC4)c3c(=O)[nH]2)ccc1Cl (single isomer, unassigned) [6-320]
37 | 1.05 | CC(C)(O)[C@@H](NC(=O)c1nn2cc(-c3ccc(Cl)c(Cl)c3)[nH]c(=O)c2c1C1CCC1)c1ccc(F)cc1 [6-568]
38 | 0.985 | Cc1cccc2ncc(-c3cn4nc(C(=O)N[C@H](CCO)c5ccc(F)cc5)c(C(C)C)c4c(=O)[nH]3)cc12 [Example 1-56, N-[(1R)-1-(4-Fluorophenyl)-3-hydroxypropyl]-6-(5-methylquinolin-3-yl)-4-oxo-3-(propan-2-yl)-4,5-dihydropyrazolo[1,5-a]pyrazine-2-carboxamide]
39 | 0.74 | Cc1cc(-c2cn3nc(C(=O)N[C@@H](c4ccc(F)cc4)[C@@H](O)C(F)(F)F)c(C4CC4)c3c(=O)[nH]2)ccc1Cl [6-316]
40 | 0.265 | Cc1ccc(-c2cn3nc(C(=O)N[C@H](CCO)c4ccc(F)cc4)cc3c(=O)[nH]2)cc1C [Example 1-39, 6-(3,4-Dimethylphenyl)-N-[(1R)-1-(4-fluorophenyl)-3-hydroxpropyl]-4-oxo-4,5-dihydropyrazolo-[1,5-a]pyrazine-2-carboxamide]
